This is an account of results in ChEMBL document CHEMBL1155836, “Discovery of imidazole carboxamides as potent and selective CCK1R agonists” (Bioorg Med Chem Lett, 2008).

Test [1] concerns the target T1, Gastrin/cholecystokinin type B receptor (Homo sapiens) (UniProt P32239).
T1 sequence (whole entry): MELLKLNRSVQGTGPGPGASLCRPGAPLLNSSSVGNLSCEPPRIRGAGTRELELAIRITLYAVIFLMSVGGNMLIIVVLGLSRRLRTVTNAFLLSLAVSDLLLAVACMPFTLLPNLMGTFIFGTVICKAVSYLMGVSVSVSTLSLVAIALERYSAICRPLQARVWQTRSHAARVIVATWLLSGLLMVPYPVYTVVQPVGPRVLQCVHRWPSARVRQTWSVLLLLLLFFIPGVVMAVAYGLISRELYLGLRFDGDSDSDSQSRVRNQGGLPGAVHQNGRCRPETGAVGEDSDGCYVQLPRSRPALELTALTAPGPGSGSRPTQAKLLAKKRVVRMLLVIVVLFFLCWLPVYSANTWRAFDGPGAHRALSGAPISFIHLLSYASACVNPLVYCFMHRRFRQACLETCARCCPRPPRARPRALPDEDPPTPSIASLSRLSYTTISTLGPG
Description: Inhibition of human CCK2 receptor at 10000 nM.

For test [2], the target named is T1, Gastrin/cholecystokinin type B receptor (Homo sapiens). Description: Agonist activity against human CCK2 receptor. In kind it is functional.
Test [3] addresses T2, Cholecystokinin receptor type A (Homo sapiens) (UniProt P32238).
T2 sequence (whole entry): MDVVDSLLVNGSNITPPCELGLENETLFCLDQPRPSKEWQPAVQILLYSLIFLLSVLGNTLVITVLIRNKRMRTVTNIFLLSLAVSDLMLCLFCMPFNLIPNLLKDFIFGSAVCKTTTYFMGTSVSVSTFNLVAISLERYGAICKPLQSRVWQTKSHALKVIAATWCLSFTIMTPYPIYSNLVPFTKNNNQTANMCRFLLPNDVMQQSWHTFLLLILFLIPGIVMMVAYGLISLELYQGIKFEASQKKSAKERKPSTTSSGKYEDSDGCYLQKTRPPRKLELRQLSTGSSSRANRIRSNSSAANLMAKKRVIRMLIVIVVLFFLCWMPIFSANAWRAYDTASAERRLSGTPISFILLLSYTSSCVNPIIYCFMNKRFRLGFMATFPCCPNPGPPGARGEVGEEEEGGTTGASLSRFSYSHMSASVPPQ
Kind of test: Agonist activity against human CCK1 receptor assessed as receptor activation at 10000 nM. The class given is functional.

Test [4] has as its target T1, Gastrin/cholecystokinin type B receptor (Homo sapiens). Kind of test: Agonist activity against human CCK2 receptor assessed as receptor activation at 10000 nM. The class given is functional.
The target in test [5] is T3, Cholecystokinin receptor type A (Homo sapiens, UniProt P32238).
T3 sequence (P32238 whole entry): T2 sequence (whole entry)
Description: Agonist activity against human CCK1 receptor. The class given is functional.

The target of test [6] is T4, Gastrin/cholecystokinin type B receptor (Homo sapiens, UniProt P32239).
T4 sequence (P32239 whole entry): T1 sequence (whole entry)
Kind of test: Inhibition of human CCK2 receptor.

Test [7] has as its target T3, Cholecystokinin receptor type A. Description: Inhibition of human CCK1 receptor.

Structures are written as SMILES. Active and inactive are the calls of the source. The rule behind the calls is not given here. Where only a bound is given, the exact number is not on record here.

For `CCOc1cccc(-n2cc(C(=O)N3CCN(c4cnc5ccccc5c4)CC3)nc2-c2ccc(C)cc2F)c1`, the inhibition in test [1] was less than 24%. Further, in test [2], the outcome was inactive. In addition, the Activity is 86% in test [3] and less than 36% in test [4]. In test [5], this compound registered a half-maximal effective concentration (EC50) of 0.13 nM. Moreover, the results for the 50% inhibitory concentration (IC50) in test [6] and in test [7] were greater than 10000 nM and 0.24 nM, respectively.

In test [1], `CCOc1cccc(-n2cc(C(=O)N3CCN(c4cnc5ccccc5c4)CC3)nc2-c2ccc(F)cc2)c1` yielded an inhibition of less than 24%. The outcome in test [2] was inactive. Besides, the Activity was 92% in test [3] and less than 36% in test [4]. The compound further registered a concentration for a half-maximal effect (EC50) in test [5] of 0.25 nM. Further, the IC50 in test [6] was greater than 10000 nM; in test [7] it was 0.6 nM.

As to `O=C(c1cn(-c2ccc3c(c2)OCCO3)c(-c2ccc(F)cc2)n1)N1CCN(c2cnc3ccccc3c2)CC1`, the inhibition in test [1] was less than 24%. Further, the outcome in test [2] was inactive. For the same compound, the Activity in test [3] is 101%; in test [4], less than 36%. The concentration for a half-maximal effect (EC50) in test [5] came out at 0.26 nM. Further, the IC50 in test [6] is greater than 10000 nM; in test [7], 0.12 nM.

In test [1], `Cc1ccc(-c2nc(C(=O)N3CCN(c4cc(C(=O)O)c5ccccc5c4)CC3)cn2-c2ccc3c(c2)OCCO3)cc1` displayed an inhibition of less than 24%. Also, in test [2], the outcome was inactive. Besides, the results for the Activity in test [3] and in test [4] were 107% and less than 36%, respectively. In test [5], this compound returned a concentration giving a half-maximal response (EC50) of 0.14 nM. The half-maximal inhibitory concentration (IC50) was greater than 10000 nM in test [6] and 0.14 nM in test [7].

`Cc1ccc(-c2nc(C(=O)N3CCN(c4cnc5ccccc5c4)CC3)cn2-c2ccc3c(c2)OCCO3)cc1`: the inhibition in test [1] is less than 24%. Moreover, the result in test [2] was inactive. Also, the values for the Activity in test [3] and in test [4] were 94% and less than 36%, respectively. Moreover, in test [5], the response was half-maximal at 0.12 nM (EC50). For the same compound, the 50% inhibitory concentration (IC50) was greater than 10000 nM in test [6] and 0.2 nM in test [7].

In test [1], `O=C(O)c1cc(N2CCN(C(=O)c3cn(-c4ccc5c(c4)OCCO5)c(-c4ccc(F)cc4)n3)CC2)cc2ccccc12` [listing 1 of 2 here] gave an inhibition of less than 24%. Moreover, the outcome in test [2] was inactive. The Activity is 97% in test [3] and less than 36% in test [4].

Regarding `CCOc1cccc(-n2cc(C(=O)N3CCN(c4cc(C(=O)O)c5ccccc5c4)CC3)nc2-c2ccc(F)cc2)c1`, the inhibition in test [1] is less than 24%. Moreover, in test [2], the result was inactive. The values for the Activity in test [3] and in test [4] were 95% and less than 36%, respectively.

In test [1], `CCOc1cccc(-n2cc(C(=O)N3CCN(c4cnc5ccccc5c4)CC3)nc2-c2ccccc2F)c1` had an inhibition of less than 24%. In test [2], the result was inactive. Also, the Activity in test [3] was 89%; in test [4], less than 36%. Also, the EC50 in test [5] was found to be 0.53 nM. Besides, the IC50 in test [6] was greater than 10000 nM; in test [7], 0.57 nM.

`O=C(O)c1cc(N2CCN(C(=O)c3cn(-c4ccc5c(c4)OCCO5)c(-c4ccc(F)cc4)n3)CC2)cc2ccccc12` [listing 2 of 2 here] returned an EC50 in test [5] of 0.093 nM. The concentration for half-maximal inhibition (IC50) in test [6] was greater than 10000 nM; in test [7] it was 0.03 nM.

With `CCOc1cccc(-n2cc(C(=O)N3CCN(c4ccc5ccccc5c4)CC3)nc2-c2c(F)cccc2F)c1`, the outcome in test [2] was inactive. Further, the Activity in test [3] is 109%; in test [4], less than 12%. Further, the midpoint of the response in test [5], the EC50, lay at 4.4 nM. In addition, half-maximal inhibition in test [7] (IC50) required 1.9 nM.

With `Cc1ccc(-c2nc(C(=O)N3CCN(c4ccc5ccccc5c4)CC3)cn2-c2cccc(OCC(F)(F)F)c2)cc1`, in test [2], the result was inactive. The results for the Activity in test [3] and in test [4] were 95% and less than 21%, respectively. Also, a half-maximal effect in test [5] (EC50) was put at 1350 nM. This compound displayed an IC50 in test [7] of 200 nM.

For `Cc1ccc(-c2nc(C(=O)N3CCN(c4ccc5ccccc5c4)CC3)cn2-c2ccc3c(c2)OCCO3)cc1`, the result in test [2] was inactive. For the same compound, the results for the Activity in test [3] and in test [4] were 89% and less than 21%, respectively. The concentration for a half-maximal effect (EC50) in test [5] is 0.99 nM. In test [7], this compound displayed a 50% inhibitory concentration (IC50) of 0.42 nM.

The term inhibition denotes the share of the control response that was lost under treatment. A low value points to little suppression. The term EC50 denotes the concentration that produces a half-maximal response. Read a low EC50 as a more potent agent. For orientation: IC50 means the concentration that gives 50% inhibition. Low readings indicate greater potency in that assay, high ones weaker potency in that assay.
